Values joined by “and” are separate entries in the source; they are usually repeats but may differ in a detail not shown here. Identical values can stand only once. Counter-ions that a name gives are not always drawn. Like-named read-outs stand apart in the source and are kept apart here.
Experiments:
[1] = system: cells from the thymus of normal BALB/c mice; test: comitogen-induced thymocyte proliferation procedure (LAF); assay type: cell-based; details: for IC50: read-out: LAF IC50; for LAF (ratio): ratio compared with rapamycin, greater than 1 = inhibited thymocyte proliferation to a greater extent than rapamycin
Experimental: (§1) Immunosuppressive activity for representative compounds of this invention was evaluated in an in vitro standard pharmacological test procedure to measure lymphocyte proliferation (LAF) and in an in vivo standard pharmacological test procedure which evaluated the survival time of a pinch skin graft.
The comitogen-induced thymocyte proliferation procedure (LAF) was used as an in vitro measure of the immunosuppressive effects of representative compounds. Briefly, cells from the thymus of normal BALB/c mice are cultured for 72 hours with PHA and IL-1 and pulsed with tritiated thymidine during the last six hours. Cells are cultured with and without various concentrations of rapamycin, cyclosporin A, or test compound. Cells are harvested and incorporated radioactivity is determined. Inhibition of lymphoproliferation is assessed as percent change in counts per minute from non-drug treated controls. For each compound evaluated, rapamycin was also evaluated for the purpose of comparison. An IC50 was obtained for each test compound as well as for rapamycin. […] A positive ratio indicates immunosuppressive activity. […] Calculation of the ratio is shown below. (()^3 H-control thymus cells -)/(()^3 H-control thymus cells -)(()^3 H-rapamycin-treated thymus cells)/(()^3 H-test compound-treated cells) [formula]

[2] = system: pinch skin graft; test: pinch skin graft survival time, in vivo; parameters: species or system male C3H(H-2K) recipients; details: dose of 4 mg/kg, intraperitoneally or orally, untreated grafts usually rejected within 6-7 days
Experimental: as §1
Representative compounds of this invention were also evaluated in an in vivo test procedure designed to determine the survival time of pinch skin graft from male BAB/c donors transplanted to male C3H(H-2K) recipients. The method is adapted from Billingham R.E. and Medawar P.B., J. Exp. Biol. 28:385-402, (1951). Briefly, a pinch skin graft from the donor was grafted on the dorsum of the recipient as a allograft, and an isograft was used as control in the same region. The recipients were treated with either varying concentrations of test compounds intraperitoneally or orally. Rapamycin was used as a test control. Untreated recipients serve as rejection control. The graft was monitored daily and observations were recorded until the graft became dry and formed a blackened scab. This was considered as the rejection day. The mean graft survival time (number of days ± S.D.) of the drug treatment group was compared with the control group. […] Results are expressed as the mean survival time in days. Untreated (control) pinch skin grafts are usually rejected within 6-7 days. The results shown in Table 1 are based on a dose of 4 mg/kg of test compound. A survival time of 12.0 ± 1.7 days was obtained for rapamycin at 4 mg/kg.

[3] = Mus musculus, Thymocyte, 72 h, thymocytes cultured for 72 hours with PHA and IL-1, tritiated thymidine incorporation
[4] = thymocytes cultured for 72 hours with PHA and IL-1, tritiated thymidine incorporation

Row | Compound | IC50 [1, 3] [nM] | LAF (ratio) [1] | Skin Graft (days ± SD), mean survival time [2] [days] | further results
1 | CO[C@H]1C[C@@H]2CC[C@@H](C)[C@@](O)(O2)C(=O)C(=O)N2CCCC[C@H]2C(=O)O[C@H]([C@H](C)C[C@@H]2CC[C@@H](OC(=O)N3CCNCC3)[C@H](OC)C2)CC(=O)[C@H](C)/C=C(\C)[C@@H](O)[C@@H](OC)C(=O)[C@H](C)C[C@H](C)/C=C/C=C/C=C/1C [Example 28, Rapamycin 42-ester with piperazine-1-carboxylic acid] | 4.2 | 1.1 |  | 
2 | Rapamycin 42-ester with 2-(2-aminoethoxy)ethyl carbamic acid [Example 21] |  | 0.6 | 10.4 ± 0.5 | IC50 [1, 4]: 6 nM
3 | CO[C@H]1C[C@@H]2CC[C@@H](C)[C@@](O)(O2)C(=O)C(=O)N2CCCC[C@H]2C(=O)O[C@H]([C@H](C)C[C@@H]2CC[C@@H](OC(=O)NO)[C@H](OC)C2)CC(=O)[C@H](C)/C=C(\C)[C@@H](O)[C@@H](OC)C(=O)[C@H](C)C[C@H](C)/C=C/C=C/C=C/1C [Example 5, Rapamycin 42-ester with hydroxycarbamic acid] | 2.1 | 1.19 |  | 
4 | CO[C@H]1C[C@@H]2CC[C@@H](C)[C@@](O)(O2)C(=O)C(=O)N2CCCC[C@H]2C(=O)O[C@H]([C@H](C)C[C@@H]2CC[C@@H](OC(=O)NCCCN(CCO)CCO)[C@H](OC)C2)CC(=O)[C@H](C)/C=C(\C)[C@@H](O)[C@@H](OC)C(=O)[C@H](C)C[C@H](C)/C=C/C=C/C=C/1C [Example 24, Rapamycin 42-ester with [3-[bis(2-hydroxyethyl)amino]propyl]carbamic acid] | 40 | 0.1 |  | 
5 | CO[C@H]1C[C@@H]2CC[C@@H](C)[C@@](O)(O2)C(=O)C(=O)N2CCCC[C@H]2C(=O)O[C@H]([C@H](C)C[C@@H]2CC[C@@H](OC(=O)NCCN(C)C)[C@H](OC)C2)CC(=O)[C@H](C)/C=C(\C)[C@@H](O)[C@@H](OC)C(=O)[C@H](C)C[C@H](C)/C=C/C=C/C=C/1C [Example 3, Rapamycin 42-ester with 2-(dimethylamino)ethyl carbamic acid] | 6.5 | 0.34 |  | 
6 | CO[C@H]1C[C@@H]2CC[C@@H](C)[C@@](O)(O2)C(=O)C(=O)N2CCCC[C@H]2C(=O)O[C@H]([C@H](C)C[C@@H]2CC[C@@H](OC(=O)NCCc3ccccn3)[C@H](OC)C2)CC(=O)[C@H](C)/C=C(\C)[C@@H](O)[C@@H](OC)C(=O)[C@H](C)C[C@H](C)/C=C/C=C/C=C/1C [Example 6, Rapamycin 42-ester with 2-(pyridin-2-yl)-ethyl carbamic acid] |  | 5.1 |  | IC50 [1, 4]: 0.8 nM; Skin Graft (days ± SD), mean survival time ([2]; 4 mg/kg): 11.40 ± 0.6 days
7 | CO[C@H]1C[C@@H]2CC[C@@H](C)[C@@](O)(O2)C(=O)C(=O)N2CCCC[C@H]2C(=O)O[C@H]([C@H](C)C[C@@H]2CC[C@@H](OC(=O)NCCc3ccccn3)[C@H](OC)C2)CC(=O)[C@H](C)/C=C(\C)[C@@H](O)[C@@H](OC)C(=O)[C@H](C)C[C@H](C)/C=C/C=C/C=C/1C [Example 8, Rapamycin 42-ester with 2-(pyridin-2-yl)ethylcarbamic acid methanesulfonate salt] |  |  |  | LAF (ratio) ([1]; methanesulfonate salt): 4.4; IC50 ([1]; thymocytes cultured for 72 hours with PHA and IL-1, tritiated thymidine incorporation, methanesulfonate salt): 0.2 nM
8 | Rapamycin 42-ester with 2-pyridinylmethyl carbamic acid hydrochloride salt [Example 11] |  | 5.0 | 11.40 ± 0.9 | IC50 [1, 4]: 0.7 nM
9 | CO[C@H]1C[C@@H]2CC[C@@H](C)[C@@](O)(O2)C(=O)C(=O)N2CCCC[C@H]2C(=O)O[C@H]([C@H](C)C[C@@H]2CC[C@@H](O)[C@H](OC)C2)CC(=O)[C@H](C)/C=C(\C)[C@@H](O)[C@@H](OC)C(=O)[C@H](C)C[C@H](C)/C=C/C=C/C=C/1C [rapamycin, Rapamycin] |  |  | 12.0 ± 1.7 | IC50 ([1]; Mus musculus, Thymocyte, 72 h): 2.2 to 9.9 nM
10 | CO[C@H]1C[C@@H]2CC[C@@H](C)[C@@](O)(O2)C(=O)C(=O)N2CCCC[C@H]2C(=O)O[C@H]([C@H](C)C[C@@H]2CC[C@@H](OC(=O)N3CCOCC3)[C@H](OC)C2)CC(=O)[C@H](C)/C=C(\C)[C@@H](O)[C@@H](OC)C(=O)[C@H](C)C[C@H](C)/C=C/C=C/C=C/1C [Example 26, Rapamycin 42-ester with morpholine-4-carboxylic acid] | 0.2 | 6.2 |  | 
11 | CO[C@H]1C[C@@H]2CC[C@@H](C)[C@@](O)(O2)C(=O)C(=O)N2CCCC[C@H]2C(=O)O[C@H]([C@H](C)C[C@@H]2CC[C@@H](OC(N)=O)[C@H](OC)C2)CC(=O)[C@H](C)/C=C(\C)[C@@H](O)[C@@H](OC)C(=O)[C@H](C)C[C@H](C)/C=C/C=C/C=C/1C [Example 1, Rapamycin 42-ester with carbamic acid] | 1.7 | 1.29 | 11.7 ± 0.5 | 
12 | CO[C@H]1C[C@@H]2CC[C@@H](C)[C@@](O)(O2)C(=O)C(=O)N2CCCC[C@H]2C(=O)O[C@H]([C@H](C)C[C@@H]2CC[C@@H](OC(=O)NCCO)[C@H](OC)C2)CC(=O)[C@H](C)/C=C(\C)[C@@H](O)[C@@H](OC)C(=O)[C@H](C)C[C@H](C)/C=C/C=C/C=C/1C [Example 2, Rapamycin 42-ester with 2-hydroxyethyl carbamic acid] |  | 1.22 and 1.09 | 10.3 ± 0.8 | 
13 | CO[C@H]1C[C@@H]2CC[C@@H](C)[C@@](O)(O2)C(=O)C(=O)N2CCCC[C@H]2C(=O)O[C@H]([C@H](C)C[C@@H]2CC[C@@H](OC(=O)NCCc3ccccn3)[C@H](OC)C2)CC(=O)[C@H](C)/C=C(\C)[C@@H](O)[C@@H](OC)C(=O)[C@H](C)C[C@H](C)/C=C/C=C/C=C/1C [Example 7, Rapamycin 42-ester with 2-(pyridin-2-yl)-ethyl carbamic acid hydrochloride salt] |  |  |  | LAF (ratio) ([1]; hydrochloride salt): 2.3; IC50 ([1]; thymocytes cultured for 72 hours with PHA and IL-1, tritiated thymidine incorporation, hydrochloride salt): 1.2 nM; Skin Graft (days ± SD), mean survival time ([2]; hydrochloride salt, 4 mg/kg): 10.33 ± 0.5 days
14 | CO[C@H]1C[C@@H]2CC[C@@H](C)[C@@](O)(O2)C(=O)C(=O)N2CCCC[C@H]2C(=O)O[C@H]([C@H](C)C[C@@H]2CC[C@@H](OC(=O)NCc3cccnc3)[C@H](OC)C2)CC(=O)[C@H](C)/C=C(\C)[C@@H](O)[C@@H](OC)C(=O)[C@H](C)C[C@H](C)/C=C/C=C/C=C/1C [Example 12, Rapamycin 42-ester with 3-pyridinylmethyl carbamic acid] | 1.1 | 3.8 |  | Skin Graft (days ± SD), mean survival time ([2]; 4 mg/kg): 9.80 ± 1.1 days
15 | CO[C@H]1C[C@@H]2CC[C@@H](C)[C@@](O)(O2)C(=O)C(=O)N2CCCC[C@H]2C(=O)O[C@H]([C@H](C)C[C@@H]2CC[C@@H](OC(=O)N3CCN(C)CC3)[C@H](OC)C2)CC(=O)[C@H](C)/C=C(\C)[C@@H](O)[C@@H](OC)C(=O)[C@H](C)C[C@H](C)/C=C/C=C/C=C/1C [Example 27, Rapamycin 42-ester with 4-methylpiperazine-1-carboxylic acid] | 1.2 | 1.2 |  | 
16 | CO[C@H]1C[C@@H]2CC[C@@H](C)[C@@](O)(O2)C(=O)C(=O)N2CCCC[C@H]2C(=O)O[C@H]([C@H](C)C[C@@H]2CC[C@@H](OC(=O)N3CCN(CCCO)CC3)[C@H](OC)C2)CC(=O)[C@H](C)/C=C(\C)[C@@H](O)[C@@H](OC)C(=O)[C@H](C)C[C@H](C)/C=C/C=C/C=C/1C [Example 23, Rapamycin 42-ester with 4-(3-hydroxypropyl)piperazine-1-carboxylic acid] | 3.4 | 1.4 |  | 

Source: patent publication EP1266900A1, “Carbamates of rapamycin” (Wyeth, priority 1992, dated 1994)
